{
  "source": "ChEMBL document CHEMBL1149924",
  "about": "“Structure activity studies on pseudo-symmetrical HIV-1 protease inhibitors” (Bioorg Med Chem Lett, 1993)",
  "key": {"[1]": {"target": "T1, Human immunodeficiency virus type 1 protease (Human immunodeficiency virus 1, UniProt Q72874)", "experiment": "Inhibitory activity against HIV-1 protease"}, "MT2": {"system": "MT2", "experiment": "Compound was evaluated for its inhibitory activity against HIV-1-IIIB infected MT2 cells (human T lymphoid cells)", "assay_type": "functional, cell-based"}, "[2]": {"target": "T1, Human immunodeficiency virus type 1 protease", "experiment": "Compound was evaluated for its inhibitory activity in recombinant HIV-l protease"}, "[3]": {"target": "T1, Human immunodeficiency virus type 1 protease", "experiment": "Compound was evaluated for its binding affinity against HIV-1 protease using [125I]-SPA (scintillation proximity assay)"}, "[4]": {"target": "T1, Human immunodeficiency virus type 1 protease", "experiment": "Compound was evaluated for its inhibitory activity against recombinant HIV-1 protease using [125I]-SPA (scintillation proximity assay)"}},
  "data": [
    {"smiles": "CCCC[C@H](CC1(C[C@@H](CCCC)C(=O)N[C@@H](CC(C)C)C(=O)N[C@@H](Cc2ccccc2)C(=O)OC)CO1)C(=O)N[C@@H](CC(C)C)C(=O)N[C@@H](Cc1ccccc1)C(=O)OC", "values": [
      {"measurement": "IC50", "setting": "[1]", "value": 400, "unit": "nM"}
    ]},
    {"smiles": "COC(=O)[C@@H](NC(=O)[C@@H](NC(=O)[C@H](Cc1ccccc1)CC(O)C[C@@H](Cc1ccccc1)C(=O)N[C@H](C(=O)N[C@H](C(=O)OC)C(C)C)C(C)C)C(C)C)C(C)C", "values": [
      {"measurement": "IC50", "setting": "[1]", "value": 5, "unit": "nM"},
      {"measurement": "IC50", "setting": "MT2", "value": 1600, "unit": "nM"}
    ]},
    {"smiles": "CC[C@H](C)[C@H](NC(=O)[C@H](Cc1ccccc1)CC(O)C[C@@H](Cc1ccccc1)C(=O)N[C@H](C(=O)NCc1ccccn1)[C@@H](C)CC)C(=O)NCc1ccccn1", "values": [
      {"measurement": "IC50", "setting": "[2]", "value": 450, "unit": "nM"},
      {"measurement": "IC50", "setting": "MT2", "value": 500, "unit": "nM"}
    ]},
    {"smiles": "CC(C)[C@H](NC(=O)[C@H](Cc1ccccc1)CC(O)C[C@@H](Cc1ccccc1)C(=O)N[C@H](C(=O)NCc1nc2ccccc2[nH]1)C(C)C)C(=O)NCc1nc2ccccc2[nH]1", "values": [
      {"measurement": "IC50", "setting": "[1]", "value": 10, "unit": "nM"},
      {"measurement": "IC50", "setting": "MT2", "value": 2100, "unit": "nM"}
    ]},
    {"smiles": "CC(C)CNC(=O)[C@H](Cc1ccccc1)CC(O)C[C@@H](Cc1ccccc1)C(=O)NCC(C)C", "values": [
      {"measurement": "IC50", "setting": "[1]", "value": "> 1000", "unit": "nM"}
    ]},
    {"smiles": "COC(=O)[C@H](Cc1ccccc1)NC(=O)[C@H](CC(C)C)NC(=O)[C@H](Cc1ccccc1)CC(O)C[C@@H](Cc1ccccc1)C(=O)N[C@@H](CC(C)C)C(=O)N[C@@H](Cc1ccccc1)C(=O)OC", "values": [
      {"measurement": "IC50", "setting": "[1]", "value": 30, "unit": "nM"},
      {"measurement": "IC50", "setting": "MT2", "value": 2300, "unit": "nM"}
    ]},
    {"smiles": "COC(=O)[C@H](Cc1ccccc1)NC(=O)[C@@H](NC(=O)[C@H](Cc1ccccc1)CC(O)C[C@@H](Cc1ccccc1)C(=O)N[C@H](C(=O)N[C@@H](Cc1ccccc1)C(=O)OC)C(C)C)C(C)C", "values": [
      {"measurement": "IC50", "setting": "[1]", "value": 10, "unit": "nM"},
      {"measurement": "IC50", "setting": "MT2", "value": 2400, "unit": "nM"}
    ]},
    {"smiles": "CCCC[C@H](CC(O)C[C@@H](CCCC)C(=O)N[C@@H](CC(C)C)C(=O)N[C@@H](Cc1ccccc1)C(=O)OC)C(=O)N[C@@H](CC(C)C)C(=O)N[C@@H](Cc1ccccc1)C(=O)OC", "values": [
      {"measurement": "IC50", "setting": "[1]", "value": 90, "unit": "nM"}
    ]},
    {"smiles": "CC[C@H](C)[C@H](NC(=O)[C@H](Cc1ccccc1)CC(O)C[C@@H](Cc1ccccc1)C(=O)N[C@H](C(=O)NCC1CCc2ccccc2N1)[C@@H](C)CC)C(=O)NCC1CCc2ccccc2N1", "note": "(stereo not given in full)", "values": [
      {"measurement": "IC50", "setting": "[2]", "value": 1200, "unit": "nM"},
      {"measurement": "IC50", "setting": "MT2", "value": 7500, "unit": "nM"}
    ]},
    {"smiles": "CCCC[C@H](CC(O)(CO)C[C@@H](CCCC)C(=O)N[C@@H](CC(C)C)C(=O)N[C@@H](Cc1ccccc1)C(=O)OC)C(=O)N[C@@H](CC(C)C)C(=O)N[C@@H](Cc1ccccc1)C(=O)OC", "values": [
      {"measurement": "IC50", "setting": "[1]", "value": 2000, "unit": "nM"}
    ]},
    {"smiles": "CCCC[C@H](CC(O)C[C@@H](CCCC)C(=O)N[C@H](C(=O)N[C@H](C(=O)OC)C(C)C)C(C)C)C(=O)N[C@H](C(=O)N[C@H](C(=O)OC)C(C)C)C(C)C", "values": [
      {"measurement": "IC50", "setting": "[1]", "value": 5, "unit": "nM"}
    ]},
    {"smiles": "COC(=O)[C@@H](NC(=O)[C@@H](NC(=O)[C@@H](CC(=O)C[C@@H](Cc1ccccc1)C(=O)N[C@H](C(=O)N[C@H](C(=O)OC)C(C)C)C(C)C)Cc1ccccc1)C(C)C)C(C)C", "values": [
      {"measurement": "IC50", "setting": "[1]", "value": "> 10000", "unit": "nM"}
    ]},
    {"smiles": "CC[C@H](C)[C@H](NC(=O)[C@H](Cc1ccccc1)CC(O)C[C@@H](Cc1ccccc1)C(=O)N[C@H](C(=O)NCc1nc2ccccc2[nH]1)[C@@H](C)CC)C(=O)NCc1nc2ccccc2[nH]1", "values": [
      {"measurement": "Ki", "setting": "[3]", "value": 3.5, "unit": "nM"},
      {"measurement": "IC50", "setting": "[4]", "value": 40000, "unit": "nM"},
      {"measurement": "IC50", "setting": "[1]", "value": 3, "unit": "nM"},
      {"measurement": "IC50", "setting": "MT2", "value": 400, "unit": "nM"}
    ]},
    {"smiles": "CC[C@H](C)[C@H](NC(=O)[C@H](Cc1ccccc1)CC(O)C[C@@H](Cc1ccccc1)C(=O)N[C@H](C(=O)NCCN1CCOCC1)[C@@H](C)CC)C(=O)NCCN1CCOCC1", "values": [
      {"measurement": "IC50", "setting": "[2]", "value": 850, "unit": "nM"},
      {"measurement": "IC50", "setting": "MT2", "value": "> 10000", "unit": "nM"}
    ]},
    {"smiles": "CCCC[C@H](CC(O)C[C@@H](CCCC)C(=O)N[C@@H](C)C(=O)N[C@@H](C)C(=O)OC)C(=O)N[C@@H](C)C(=O)N[C@@H](C)C(=O)OC", "values": [
      {"measurement": "IC50", "setting": "[1]", "value": 75, "unit": "nM"}
    ]}
  ]
}
